Test [1] addresses T1, ADORA2A (Homo sapiens, UniProt P29274). The experiment in a line: GPCR screening, Calcium Flux (calcium mobilization), Agonist format. It is filed as cell-based. The note with it: read-out: Max Response. The method, then:
(§1) Cell lines were expanded from freezer stocks according to standard procedures. Cells were seeded in a total volume of 20 μL into black-walled, clear-bottom, Poly-D-lysine coated 384-well microplates and incubated at 37° C. for the appropriate time prior to testing.
(§2) Assays were performed in 1×Dye Loading Buffer consisting of 1×Dye, 1×Additive A and 2.5 mM Probenecid in HBSS/20 mM Hepes. Probenicid was prepared fresh. Cells were loaded with dye prior to testing. Media was aspirated from cells and replaced with 20 μL Dye Loading Buffer. Cells were incubated for 30-60 minutes at 37° C.
For agonist determination, cells were incubated with sample to induce response. […] Cells were incubated for 30 minutes at room temperature in the dark to equilibrate plate temperature.
Compound activity was analyzed using CBIS data analysis suite (ChemInnovation, CA).
(§3) When the calcium was released, the fluorescence of the dye was increased and the increase was measured in real-time.

In test [2] the target is T1, ADORA2A. The experiment in a line: GPCR screening, Calcium Flux (calcium mobilization), Antagonist format. It is filed as cell-based. The note with it: for Emax: read-out: Max Response. The method, then:
as §1, §2
For antagonist determination, cells were pre-incubated with sample followed by agonist challenge at the EC80 concentration. Intermediate dilution of sample stocks was performed to generate 3X sample in assay buffer. After dye loading, cells were removed from the incubator and 10 μL 3X sample was added. Cells were incubated for 30 minutes at room temperature in the dark to equilibrate plate temperature. Vehicle concentration was 1%.
Compound antagonist activity was measured on a FLIPR Tetra (MDS). Calcium mobilization was monitored for 2 minutes and 10 μL EC80 agonist in HBSS/20 mM Hepes was added to the cells 5 seconds into the assay.
For antagonist and negative allosteric modulation mode assays, percentage inhibition is calculated using the following formula: […]
as §3
FIGS. 1 and 2 show percent reacted (Y) versus concentration in μM (X). Compounds were tested in antagonist mode with the requested GPCR Biosensor Assay. For the antagonist assay, data was normalized to the maximal and minimal response observed in the presence of EC80 ligand and vehicle.
For orientation: Calcium assays in cells follow changes in intracellular calcium, usually with a dye or a luminescent sensor.

Setting [3] is: Calcium Flux, Antagonist format.
Setting [4] is: Calcium Flux, Antagonist format, EC80 0.021 μM NECA, read-out: RC50 (Result Type IC50).
[5] abbreviates: antagonist mode, text to FIGS. 1 and 2, EC80 0.021 μM NECA, read-out: half maximal inhibitory concentration (IC50).

Molecules are shown by their SMILES. Where two headings read alike, the source gives them in different places.

T1 sequence (P29274 whole entry): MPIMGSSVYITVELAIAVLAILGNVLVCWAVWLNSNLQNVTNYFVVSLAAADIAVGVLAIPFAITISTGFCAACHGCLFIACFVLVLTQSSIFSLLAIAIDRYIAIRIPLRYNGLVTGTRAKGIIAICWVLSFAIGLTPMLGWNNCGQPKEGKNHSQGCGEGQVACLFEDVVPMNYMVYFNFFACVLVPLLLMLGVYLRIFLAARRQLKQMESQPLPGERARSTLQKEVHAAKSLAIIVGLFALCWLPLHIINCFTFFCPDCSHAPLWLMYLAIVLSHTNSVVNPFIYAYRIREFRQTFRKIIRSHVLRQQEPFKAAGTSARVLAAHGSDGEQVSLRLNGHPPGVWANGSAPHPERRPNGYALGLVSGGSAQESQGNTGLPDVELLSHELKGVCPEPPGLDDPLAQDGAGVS

In the case of `CCn1c(=O)c2c(nc(/C=C/c3ccc(OC)c(OCF)c3)n2C)n(CC)c1=O` [Compound 8, (E)-1,3-diethyl-8-(3-(fluoromethoxy)-4-methoxystyryl)-7-methyl-3,7-dihydro-1H-purine-2,6-dione], in test [1], the Emax is 0%. Also, in test [2] (setting [3]), the “Curve Bottom” value is 7.8668, the “Curve Top” value is recorded as 99.957, the Hill is reported as 1.7211 and the Emax was determined as 99.1%. Further, the IC50 in test [2] (setting [4]) worked out at 174 nM. Besides, the IC50 in test [2] (setting [5]) was determined as 174 nM.
Take `CCn1c(=O)c2c(nc(/C=C/c3ccc(OCF)c(OC)c3)n2C)n(CC)c1=O` [Compound 9, (E)-1,3-diethyl-8-(4-(fluoromethoxy)-3-methoxystyryl)-7-methyl-3,7-dihydro-1H-purine-2,6-dione]: in test [1], the Emax is 0%. For the same compound, in test [2] (setting [3]), the “Curve Bottom” value was “−.090144”, the “Curve Top” value is 99.922, the Hill is 1.3438 and the Emax was 99.7%. Further, the IC50 in test [2] (setting [4]) came to 95.5 nM. Further, the IC50 in test [2] (setting [5]) worked out at 95.5 nM.

The values above are taken from patent US20250353849A1, “PURINE COMPOUNDS FOR TREATING DISORDERS” (MARVEL BIOTECHNOLOGY, priority 2021, published 2025).
